Results on five compounds are retold here after patent US4076947A, “Cycloalkyl and cycloalkenyl prostaglandin congeners” (American Cyanamid Company, priority 1977, dated 1978).

Common to all, as to assay type: in vivo
Assay [1] has as its system bronchospasms elicited by intravenous injections of 5-hydroxytryptamine. In words: Bronchodilator activity, Konzett procedure, against 5-hydroxytryptamine. The note with it: Cavia porcellus, three logarithmic cumulative intravenous doses, guinea pigs, read-out: ED50, spasmogenic agent 5-hydroxytryptamine. As for the experimental part: (§1) Bronchodilator activity was determined in guinea pigs against bronchospasms elicited by intravenous injections of 5-hydroxytryptamine, histamine or acetylcholine by the Konzett procedure. [See J. Lulling, P. Lievens, F. El Sayed and J. Prignot, Arzneimittel-Forschung, 18, 995 (1968)].
(§2) In the Table which follows bronchodilator activity for representative compounds of this invention against one or more of three spasmogenic agents is expressed as an ED50 determined from the results obtained with three logarithemic cumulative intravenous doses.

The subject of assay [2] is bronchospasms elicited by intravenous injections of acetylcholine. The assay is described as follows: Bronchodilator activity, Konzett procedure, against acetylcholine. To be noted: Cavia porcellus, three logarithmic cumulative intravenous doses, guinea pigs, read-out: ED50, spasmogenic agent acetyl choline. As for the experimental part:
as §1, §2

For assay [3], the system named is ulcerogenic properties of indomethacin. The assay is described as follows: Protection against indomethacin-induced gastric ulcers in rats (ulcer score). To be noted: total oral dose 6.25 mg./kg. in two halves; indomethacin 20 mg./kg. s.c.; scale 0-4; control score 3.0; lowering by 0.5 or more = active. The source says:
The novel compounds of the present invention have potential utility as hypotensive agents, anti-ulcer agents, agents for the treatment of gastric hypersecretion and gasteric erosion, bronchodilators, abortifacients, agents for the induction of labor, agents for the induction of menses, fertility-controlling agents, central nervous system regulatory agents, salt and water-retention regulatory agents, diuretics, fat metabolic regulatory agents, serum-cholesterol lowering agents, anti-inflammatory agents and as agents for the inhibition of platelet aggregation. […] The compounds of this invention provide protection against the ulcerogenic properties of indomethacin. A measure of this utility which also measures potential anti-ulcer properties is the assay which follows.
Rats were starved for 48 hours (water was given ad libitum). Indomethacin (20 mg./kg. of body weight) was administered by the subcutaneous route and one-half the dose of the test compound was administered by gavage at the same time. After three hours, the second half of the test compound was administered also by gavage. Five hours after the administration of indomethacin the animals were decapitated and the stomachs removed. The stomachs were washed with distilled water, blotted on gauze, cut along the larger curvature, and the contents rinsed with distilled water. […]

For assay [4], the system named is bronchospasms elicited by intravenous injections of histamine. In words: Bronchodilator activity, Konzett procedure, against histamine. To be noted: three logarithmic cumulative intravenous doses, guinea pigs. As for the experimental part:
as §1, §2

Molecules are shown by their SMILES. Read-outs that look alike come from different tables or passages of the source.

For `O=C(O)CCCCCCC1C(=O)CC(O)C1C=CC(O)CC1CCCC1` (stereo not drawn) [d,l 9-oxo-11α,15-dihydroxy-17,20-methano-13-trans-prostenoic acid], the ED50 stood at 0.0018 mg/kg in assay [1] and 0.0013 mg/kg in assay [2].
Turning to `O=C(O)CCCCCCC1C(=O)CC(O)C1C=CC(O)CC1CCCC1` (stereo not drawn) [d,l 9-oxo-11α,15-epi-dihydroxy-17,20-methano-13-trans-proste] [d,l 9-oxo-11α,15-epi-dihydroxy-17,20-methano-13-trans-prostenoic acid], the “Score, Treated” value in assay [3] amounted to 2.3. In addition, in assay [4] (listed as d,1-9-oxo-11α-15-epi-dihydroxy-17,20-methano-13-trans-prostenoic acid), the “ED50, spasmogenic agent histamine” value was 0.042 mg/kg.
Regarding `O=C(O)CCCCCCC1C(=O)CC(O)C1C=CC(O)CC1CCCC1` (stereo not drawn) [d,l 9-oxo-11α,15-epi-dihydroxy-17,20-methano-13-trans-prostenoic acid], in assay [1] (no power of ten printed), the ED50 was found to be 0.228 mg/kg.
Take `O=C(O)CCCCCCC1C(=O)C=CC1C=CC(O)CC1CCCC1` (stereo not drawn) [d,1-9-oxo-15-hydroxy-17,20-methano-10,13-trans-prostadienoic acid]: the ED50 in assay [1] stood at 0.0546 mg/kg; in assay [4] (Cavia porcellus, iv, read-out: ED50, spasmogenic agent histamine) it was 0.041 mg/kg; in assay [2] it was 0.292 mg/kg.
For the compound `O=C(O)CCCCCCC1C(=O)CC(O)C1C=CC(O)CC1CCCC1` (stereo not drawn) [d,l 9-oxo-11α,15-dihydroxy-17,20-methano-13-trans-prostenoic] [d,l 9-oxo-11α,15-dihydroxy-17,20-methano-13-trans-prostenoic acid], the “Score, Treated” value in assay [3] was found to be 1.5. Moreover, the “ED50, spasmogenic agent histamine” value in assay [4] (listed as d,1-9-oxo-11α-15-dihydroxy-17,20-methano-13-trans-prostenoic acid) is 0.000444 mg/kg.

One may read the ED50 as the midpoint of the dose-response relation.
